# Patent publication US20120238105A1, “FORMULATIONS FOR THE PRODUCTION OF ELECTRONIC DEVICES” (Merck Patent GmbH, priority 2009, published 2012)
# Assay: solubility of matrix compounds for producing devices from solution
# Assay type: physicochemical
# Conditions: compounds dissolved in toluene or chlorobenzene for spin coating of the emission layer (matrix with 5% by weight emitter)
# Description: Materials according to the invention are used from solution, where they result in simple devices having nevertheless good properties. The production of such components is based on the production of polymeric light-emitting diodes (PLEDs), which has already been described many times in the literature (for example in WO 2004/037887 A2). In the present case, the compounds according to the invention are dissolved in toluene or chlorobenzene. The concentration employed in the examples given here is 20% by weight of the emitter (T-1 or compound 18) and 80% by weight of the matrix materials (compounds 5 to 17). The typical solids content of such solutions is between 16 and 25 g/l if, as here, the typical layer thickness of 80 nm for a device is to be achieved by means of spin coating.
# The concentration employed in the examples given here is 5% by weight of the emitter (SEB-095, Merck) and 95% by weight of the matrix materials (compounds 28 and 29). The typical solids content of such solutions is […] if, as here, the typical layer thickness of 50 nm for a device is to be achieved by means of spin coating.
row,Compound,solubility
1,c1ccc(-c2c3ccccc3c(-c3cccc4c3ccc3cc5ccccc5cc34)c3ccccc23)cc1 [Compound 25],poor solubility
2,c1ccc(-c2cccc(-c3c4ccccc4c(-c4cccc5c4ccc4cc6ccccc6cc45)c4ccccc34)c2)cc1 [Compound 27],poor solubility
3,c1ccc(-c2cc(-c3ccccc3)cc(-c3c4ccccc4c(-c4cccc5c4ccc4cc6ccccc6cc45)c4ccccc34)c2)cc1 [Compound 28],improved solubility
4,c1ccc(-c2cc(-c3ccccc3)cc(-c3cccc(-c4c5ccccc5c(-c5cccc6c5ccc5cc7ccccc7cc56)c5ccccc45)c3)c2)cc1 [Compound 29],improved solubility
